Laboratory results reported in the supplement of paper PMC9549728.
Counter-ions that a name gives are not always drawn.

Legend:
Test in all cases: IC50 (viability, PrestoBlue) (log10 nM)
Details in all cases: exposure time: 72 h
[1] = test system: murine normal gastric organoid
Description: (§1)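 Murine gastric corpus organoids (normal uninduced; RAS-activated Kras G12D/Tp53 R172H; diffuse Cdh1/Apc loss; WNT-activated Apc loss/Tp53 R172H) were seeded in Matrigel into pre-spotted 384-well plates. The plates held a 196-compound library at 6.7 nM to 25,004 nM (9 doses) and were incubated 72 h. Viability was read by PrestoBlue fluorescence (560/590 nm). IC50 came from non-linear regression (Prism), reported as log10 IC50 in nM, mean of 3 passages x 2 wells.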

[2] = test system: murine gastric organoid diffuse (Cdh1 fl/fl; Apc fl/fl)
Description: as §1

[3] = test system: murine gastric organoid RAS-activated (Kras G12D; Tp53 R172H)
Description: as §1

[4] = test system: murine gastric organoid WNT-activated (Apc fl/fl; Tp53 R172H)
Description: as §1

Row | SMILES | IC50 (log10 nM) [1] | IC50 (log10 nM) [2] | IC50 (log10 nM) [3] | IC50 (log10 nM) [4]
1 | CCN1CCN(Cc2ccc(Nc3ncc(F)c(-c4cc(F)c5nc(C)n(C(C)C)c5c4)n3)nc2)CC1 | 2.94 | 2.7 | 2.88 | 2.47
2 | CCNC(=O)C[C@@H]1N=C(c2ccc(Cl)cc2)c2cc(OC)ccc2-n2c(C)nnc21 | 2.77 | 3.13 | 3.3 | 1.54
3 | COc1ccc(-c2cc3c(C)nc(N)nc3n([C@H]3CC[C@H](OCCO)CC3)c2=O)cn1 | 2.08 | 2 | 2.17 | 2.11
4 | Nc1ncn([C@@H]2O[C@H](CO)[C@@H](O)[C@H]2O)c(=O)n1 [5-Azacytidine] | 3.78 | 3.5 | 3.64 | 3.58
5 | Nc1nc(=S)c2[nH]cnc2[nH]1 [6-Thioguanine] | 3.73 | 4.29 | 3.8 | 1.35
6 | CC1(C)CCC(CN2CCN(c3ccc(C(=O)NS(=O)(=O)c4ccc(NCC5CCOCC5)c([N+](=O)[O-])c4)c(Oc4cnc5[nH]ccc5c4)c3)CC2)=C(c2ccc(Cl)cc2)C1 [ABT-199] | 3.61 | 4.17 | 4.06 | 3.1
7 | Cc1c2oc3c(C)ccc(C(=O)N[C@@H]4C(=O)N[C@H](C(C)C)C(=O)N5CCC[C@H]5C(=O)N(C)CC(=O)N(C)[C@@H](C(C)C)C(=O)O[C@@H]4C)c3nc-2c(C(=O)N[C@@H]2C(=O)N[C@H](C(C)C)C(=O)N3CCC[C@H]3C(=O)N(C)CC(=O)N(C)[C@@H](C(C)C)C(=O)O[C@@H]2C)c(N)c1=O [Actinomycin D] | < 0.826 | < 0.826 | < 0.826 | < 0.826
8 | CN(C)C/C=C/C(=O)Nc1cc2c(Nc3ccc(F)c(Cl)c3)ncnc2cc1O[C@H]1CCOC1 [Afatinib] | 1.55 | 1.95 | 3.6 | 1.27
9 | COc1cc(Nc2ncc3c(n2)-c2ccc(Cl)cc2C(c2c(F)cccc2OC)=NC3)ccc1C(=O)O [Alisertib] | 2.47 | 2.98 | 2 | 3.02
10 | CN(C)CCN1C(=O)c2cccc3cc(N)cc(c23)C1=O [Amonafide] | 3.1 | 3.23 | 3.03 | 2.39
11 | CNC(=O)c1ccccc1Sc1ccc2c(/C=C/c3ccccn3)n[nH]c2c1 [Axitinib] | 3.98 | 3.78 | 3.3 | 2.75
12 | O=C(/C=C/c1cccc(S(=O)(=O)Nc2ccccc2)c1)NO [Belinostat] | 3.2 | 3.29 | 2.61 | 3.27
13 | Cn1cnc2c(F)c(Nc3ccc(Br)cc3F)c(C(=O)NOCCO)cc21 [Binimetinib] | 2.09 | 3.03 | 2.28 | 2.96
14 | Cc1c(N)nc([C@H](CC(N)=O)NC[C@H](N)C(N)=O)nc1C(=O)N[C@H](C(=O)N[C@H](C)[C@@H](O)[C@H](C)C(=O)N[C@H](C(=O)NCCc1nc(-c2nc(C(=O)NCCC[S+](C)C)cs2)cs1)[C@@H](C)O)[C@@H](OC1OC(CO)C(O)C(O)C1OC1OC(CO)C(O)C(OC(N)=O)C1O)c1cnc[nH]1 (some centres not stated) [Bleomycin] | 3.85 | 3.57 | 3.83 | > 4.4
15 | CC(C)C[C@H](NC(=O)[C@H](Cc1ccccc1)NC(=O)c1cnccn1)B(O)O [Bortezomib] | 1.14 | 1.1 | 0.871 | 1.16
16 | COc1cc(Nc2c(C#N)cnc3cc(OCCCN4CCN(C)CC4)c(OC)cc23)c(Cl)cc1Cl [Bosutinib] | 3.96 | 3.58 | 3.57 | 3.01
17 | N#CCNC(=O)c1ccc(-c2ccnc(Nc3ccc(N4CCOCC4)cc3)n2)cc1 [CYT387] | 3.48 | 3.58 | 3.51 | 4.05
18 | C=CC(=O)Nc1cc2c(Nc3ccc(F)c(Cl)c3)ncnc2cc1OCCCN1CCOCC1 [Canertinib] | 2.35 | 2.6 | 3.85 | 2.17
19 | CC(C)C[C@H](NC(=O)[C@H](CCc1ccccc1)NC(=O)CN1CCOCC1)C(=O)N[C@@H](Cc1ccccc1)C(=O)N[C@@H](CC(C)C)C(=O)[C@@]1(C)CO1 [Carfilzomib] | 1.16 | 1.04 | 1.16 | 1.32

Row | SMILES | IC50 (log10 nM) [1] | IC50 (log10 nM) [2] | IC50 (log10 nM) [3] | IC50 (log10 nM) [4]
20 | COc1cc2c(Oc3ccc4[nH]c(C)cc4c3F)ncnc2cc1OCCCN1CCCC1 [Cediranib maleate] | 3.38 | 2.67 | 2.93 | < 0.826
21 | O=C(O)CCCc1ccc(N(CCCl)CCCl)cc1 [Chlorambucil] | 3.32 | 2.48 | 2.93 | 3.92
22 | N.N.[Cl][Pt][Cl] [Cisplatin] | 3 | 3.13 | 3.54 | 3.59
23 | Nc1nc(Cl)nc2c1ncn2[C@H]1C[C@H](O)[C@@H](CO)O1 [Cladribine] | 3.19 | 3.04 | 3.08 | 3.27
24 | Nc1nc(Cl)nc2c1ncn2[C@@H]1O[C@H](CO)[C@@H](O)[C@@H]1F [Clofarabine] | 3.15 | 2.97 | 3.04 | 3.27
25 | O=C(c1ccc(F)c(F)c1Nc1ccc(I)cc1F)N1CC(O)([C@@H]2CCCCN2)C1 [Cobimetinib] | 1.45 | 1.74 | 1.75 | 1.82
26 | COc1c(OCCCN2CCOCC2)ccc2c1N=C(NC(=O)c1cnc(N)nc1)N1CCN=C21 [Copanlisib] | 1.94 | 2.23 | 2 | 1.96
27 | C[C@@H](Oc1cc(-c2cnn(C3CCNCC3)c2)cnc1N)c1c(Cl)ccc(F)c1Cl [Crizotinib] | 3.4 | 3.22 | 2.96 | 2.95
28 | Nc1ccn([C@@H]2O[C@H](CO)[C@@H](O)[C@@H]2O)c(=O)n1 [Cytarabine] | 2.33 | 2.71 | 2.07 | 2.9
29 | Cc1nc(Nc2ncc(C(=O)Nc3c(C)cccc3Cl)s2)cc(N2CCN(CCO)CC2)n1 [Dasatinib hydrochloride] | 2.05 | 2.3 | 1.86 | 1.29
30 | COc1cccc2c1C(=O)c1c(O)c3c(c(O)c1C2=O)C[C@@](O)(C(C)=O)C[C@@H]3O[C@H]1C[C@H](N)[C@H](O)[C@H](C)O1 [Daunorubicin hydrochloride] | 1.56 | 1.77 | 1.6 | 1.73
31 | Nc1ncn([C@H]2C[C@H](O)[C@@H](CO)O2)c(=O)n1 [Decitabine] | 2.9 | 3.85 | > 4.4 | 3.34
32 | CCc1cnn2c(NCc3ccc[n+]([O-])c3)cc(N3CCCC[C@H]3CCO)nc12 [Dinaciclib] | > 4.4 | 4.11 | > 4.4 | 4.28
33 | CN1CCN(c2ccc3nc(-c4c(N)c5c(F)cccc5[nH]c4=O)[nH]c3c2)CC1 [Dovitinib] | 3.21 | 3.4 | 3.46 | 3.41
34 | COc1cccc2c1C(=O)c1c(O)c3c(c(O)c1C2=O)C[C@@](O)(C(=O)CO)C[C@@H]3O[C@H]1C[C@H](N)[C@H](O)[C@H](C)O1 [Doxorubicin] | 2.02 | 2.23 | 2.14 | 2.2
35 | Nc1ccccc1NC(=O)c1ccc(CNC(=O)OCc2cccnc2)cc1 [Entinostat] | 4.22 | 3.39 | 3.36 | 3.99
36 | C#Cc1cccc(Nc2ncnc3cc(OCCOC)c(OCCOC)cc23)c1 [Erlotinib] | 2.58 | 2.97 | > 4.4 | 2.67
37 | COc1cc([C@@H]2c3cc4c(cc3[C@@H](O[C@@H]3O[C@@H]5CO[C@@H](C)O[C@H]5[C@H](O)[C@H]3O)[C@H]3COC(=O)[C@H]23)OCO4)cc(OC)c1O [Etoposide] | 2.67 | 3.06 | 2.89 | 3.07
38 | CO[C@H]1C[C@@H]2CC[C@@H](C)[C@@](O)(O2)C(=O)C(=O)N2CCCC[C@H]2C(=O)O[C@H]([C@H](C)C[C@@H]2CC[C@@H](OCCO)[C@H](OC)C2)CC(=O)[C@H](C)/C=C(\C)[C@@H](O)[C@@H](OC)C(=O)[C@H](C)C[C@H](C)/C=C/C=C/C=C/1C [Everolimus] | 3.4 | 3.31 | 3.26 | 3.26
